We go through 54 sequences from the OligoGym collection.

One data set has as its target SOD1. Particulars: ASO.
For the next data set, the target named is MALAT1. Particulars: ASO, A431, 0.005 µM.

“And” between values parts separate entries of the source, which are not always exact repeats. Equal values may be shown once. After the bases stand the sugars from the 5' end (letter, count) and the backbone: PS all phosphorothioate, else s phosphorothioate and o phosphodiester by linkage. Methylation of C is not given here. e = 2'-O-(2-methoxyethyl) (MOE); k = constrained ethyl (cEt); d = 2'-deoxy (DNA)

Regarding “TTTCTACAGCTAGCAGG (sugars e2 k2 d8 k2 e3, PS)”, the target mRNA inhibition with SOD1 (HepG2, 0.1875 µM) was 16%; with SOD1 (HepG2, 0.75 µM), 58%; with SOD1 (HepG2, 3 µM) it was 78%; with SOD1 (HepG2, 4 µM), 76%; with SOD1 (HepG2, 12 µM), 87%.
Regarding “AGGTCATTGAAACAGAC (sugars e2 k2 d8 k2 e3, PS)”, in the data set with SOD1 (HepG2, 5 µM), the target mRNA inhibition came to 40%.
For “GCCTCAGACTACATCCA (sugars e2 k2 d8 k2 e3, PS)”, the target mRNA inhibition with SOD1 (HepG2, 4 µM) is 69%.
Turning to “TACATCCAAGGGAATGT (sugars e3 k2 d7 k2 e3, PS)”, the target mRNA inhibition in the data set with SOD1 (HepG2, 3 µM) came to 30%.
“CAGTCCTTTAATGCTTCCCC (sugars e5 d10 e5, PS)”: in the data set with SOD1 (HepG2, 5 µM), the target mRNA inhibition is 51% and 40%.
For the sequence “ATAGAGGATTAAAGTGA (sugars e3 k2 d7 k2 e3, PS)”, the target mRNA inhibition in the data set with SOD1 (HepG2, 3 µM) was found to be 9%.
For the sequence “TACAGGTACTTTAAAGC (sugars e2 k2 d9 k2 e2, PS)”, in the data set with SOD1 (HepG2, 5 µM), the target mRNA inhibition was 26%.
As to “TACAGCTAGCAGGATAA (sugars e3 k2 d7 k2 e3, PS)”, the target mRNA inhibition with SOD1 (HepG2, 3 µM) was 40%.
For the sequence “ATGTTTATCAGGATACA (sugars eeeeddddddddkekee, linkages s1 o2 s9 o2 s2)”, the target mRNA inhibition was 12% with SOD1 (A431, 0.062 µM); 19% in the data set with SOD1 (A431, 0.185 µM); 29% in the data set with SOD1 (A431, 0.556 µM); 38% in the data set with SOD1 (A431, 1.667 µM); 51% and 50% with SOD1 (A431, 5 µM); 61% in the data set with SOD1 (A431, 15 µM). In addition, the target mRNA inhibition was 15% with SOD1 (SH-SY5Y, 0.062 µM); 27% with SOD1 (SH-SY5Y, 0.185 µM); 52% with SOD1 (SH-SY5Y, 0.556 µM); 63% with SOD1 (SH-SY5Y, 1.667 µM); 79% with SOD1 (SH-SY5Y, 5 µM); 92% in the data set with SOD1 (SH-SY5Y, 15 µM).
Take “ACAGTGTTTAATGTTT (sugars kekeddddddddekek, linkages s1 o3 s8 o1 s2)”: the target mRNA inhibition with SOD1 (A431, 0.12 µM) is 0%; with SOD1 (A431, 0.6 µM), 0%; with SOD1 (A431, 3 µM) it was 0%; with SOD1 (A431, 15 µM) it was 6%; in the data set with SOD1 (HepG2, 0.222 µM) it was 55%; with SOD1 (HepG2, 0.667 µM) it was 68%. Further, the target mRNA inhibition with SOD1 (HepG2, 2 µM) came to 78%; with SOD1 (HepG2, 6 µM) it was 88%.
Turning to “GTTTAATGTTTATCAGGATA (sugars e5 d10 e5, PS)”, the target mRNA inhibition in the data set with SOD1 (HepG2, 0.1875 µM) came to 15%; in the data set with SOD1 (HepG2, 0.75 µM) it was 37%; with SOD1 (HepG2, 3 µM), 70%; in the data set with SOD1 (HepG2, 5 µM), 71%; in the data set with SOD1 (HepG2, 12 µM) it was 88%.
In the case of “TGGATAGAGGATTAAAG (sugars e3 k2 d7 k2 e3, PS)”, the target mRNA inhibition with SOD1 (HepG2, 3 µM) was found to be 23%.
Turning to “TTTATAGGCCAGACCTCCGC (sugars e5 d10 e5, PS)”, the target mRNA inhibition with SOD1 (HepG2, 4 µM) was 68% and 69%; with SOD1 (HepG2, 12 µM) it was 82%.
In the case of “AGGATAACAGATGAGTT (sugars e2 k2 d9 k2 e2, PS)”, the target mRNA inhibition worked out at 32% with SOD1 (HepG2, 0.1875 µM); 62% with SOD1 (HepG2, 0.75 µM); 89% with SOD1 (HepG2, 3 µM); 86% with SOD1 (HepG2, 4 µM); 98% in the data set with SOD1 (HepG2, 12 µM).
With “TCCTGGTTCCGAGGACTGCA (sugars e5 d10 e5, PS)”, the target mRNA inhibition with SOD1 (HepG2, 4 µM) was found to be 24%.
As for “AATCTTCCAAGTGATCA (sugars e3 k2 d7 k2 e3, PS)”, the target mRNA inhibition in the data set with SOD1 (HepG2, 3 µM) is 23%.
“TTGGGCGATCCCAATTA (sugars e3 k2 d7 k2 e3, PS)”: the target mRNA inhibition with SOD1 (HepG2, 3 µM) was 26%.
With “CATCTGTGATTTAAGTC (sugars e2 k2 d9 k2 e2, PS)”, the target mRNA inhibition in the data set with SOD1 (HepG2, 5 µM) came out at 48%.
In the case of “ACTGGGCCGTCGCCCTTCAG (sugars e5 d10 e5, PS)”, the target mRNA inhibition with SOD1 (HepG2, 4 µM) was 26%.
As for “TTTAATGCTTCCCCACACCT (sugars e5 d10 e5, PS)”, the target mRNA inhibition in the data set with SOD1 (HepG2, 4 µM) was determined as 15%.
For the sequence “CATTTCTACAGCTAGCA (sugars e3 k2 d7 k2 e3, PS)”, the target mRNA inhibition in the data set with SOD1 (HepG2, 3 µM) was 34%.
For the sequence “GGAATCCATGCAGGCCT (sugars e3 k2 d7 k2 e3, PS)”, the target mRNA inhibition with SOD1 (HepG2, 3 µM) was found to be 7%.
Same read-out and setting: the value for “TTGGATTCTTTTAATAG (sugars e3 k2 d7 k2 e3, PS)” was 8%; that for “CGACTACTTTATAGGCC (sugars e3 k2 d7 k2 e3, PS)” was 12%; that for “AACATGGAATCCATGCA (sugars e3 k2 d7 k2 e3, PS)” was 10%.
Take “GACACATCGGCCACACCATC (sugars e5 d10 e5, PS)”: the target mRNA inhibition in the data set with SOD1 (HepG2, 5 µM) is 45% and 30%.
For the sequence “AATACCCATCTGTGATT (sugars e3 k2 d7 k2 e3, PS)”, the target mRNA inhibition with SOD1 (HepG2, 3 µM) came out at 7%.
Consider “CCAAGTGATCATAAATC (sugars e2 k2 d9 k2 e2, PS)”, for which, in the data set with SOD1 (HepG2, 5 µM), the target mRNA inhibition came out at 48%.
As to “CACCACAAGCCAAACGA (sugars e2 k2 d9 k2 e2, PS)”, the target mRNA inhibition with SOD1 (HepG2, 4 µM) is 46%.
Turning to “ATAAGTGCCATACAGGG (sugars e2 k2 d9 k2 e2, PS)”, in the data set with SOD1 (HepG2, 5 µM), the target mRNA inhibition was 46%.
On to “GTGCGGCCAATGATGCAATG (sugars e5 d10 e5, PS)”, for which the target mRNA inhibition in the data set with SOD1 (HepG2, 5 µM) came to 12%.
Consider “GTTTATTGGGCGATCCC (sugars e2 k2 d9 k2 e2, PS)”, for which the target mRNA inhibition in the data set with SOD1 (HepG2, 4 µM) was 68%.
For “CATCGGCCACACCATCTTTG (sugars e5 d10 e5, PS)”, the target mRNA inhibition in the data set with SOD1 (HepG2, 5 µM) is 34% and 38%.
On the same count and under the same terms, as for “CCTCATAATAAGTGCCATAC (sugars e5 d10 e5, PS)”, the figure is 23%; as for “AGTTTAATACCCATCTG (sugars e2 k2 d8 k2 e3, PS)”, 29%.
Take “CATCTGTGATTTAAGTCTGG (sugars e5 d10 e5, PS)”: in the data set with SOD1 (HepG2, 5 µM), the target mRNA inhibition was 29%.
Same read-out and setting: as for “AAGTCTCCAACATGCCTCTC (sugars e5 d10 e5, PS)”, the figure is 20% and 6%.
As to “TAATACCCATCTGTGAT (sugars e3 k2 d7 k2 e3, PS)”, in the data set with SOD1 (HepG2, 3 µM), the target mRNA inhibition came to 4%.
On to TTGCTCACATGCCAGT (sugars k3 d10 k3, PS), for which, in the data set with MALAT1, the target mRNA inhibition was found to be 40%.
CTAAGATAGCAGCACA (sugars k3 d10 k3, PS): in the data set with MALAT1, the target mRNA inhibition is 11%.
On to TCCAAGCTACTGGCTG (sugars k3 d10 k3, PS), for which the target mRNA inhibition with MALAT1 amounted to 20%.
On to AGTAGGCCAGACCAAC (sugars k3 d10 k3, PS), for which the target mRNA inhibition with MALAT1 amounted to 4%.
In the case of TTCCTTCGGATGCTTC (sugars k3 d10 k3, PS), in the data set with MALAT1, the target mRNA inhibition is 50%.
For the sequence GAATGTTTCTTGTCAC (sugars k3 d10 k3, PS), the target mRNA inhibition with MALAT1 came to 43%.
Consider AACTCCACAGCTCTTA (sugars k3 d10 k3, PS), for which, in the data set with MALAT1, the target mRNA inhibition worked out at 41%.
Turning to GCCAAGCCGCCTGCTA (sugars k3 d10 k3, PS), the target mRNA inhibition in the data set with MALAT1 is 20%.
On the same count and under the same terms, as for GCCGCCTCTTAAAGCA (sugars k3 d10 k3, PS), the figure is -11%.
As to GAGGCTGACACTTCTC (sugars k3 d10 k3, PS), in the data set with MALAT1, the target mRNA inhibition was -10%.
Still for that read-out and setting: the value for TCGCTTTTATTCTGCT (sugars k3 d10 k3, PS) was 22%; that for CAATCCCAACCGTAAC (sugars k3 d10 k3, PS) was 9%; that for TAGTTCAACCCACCAA (sugars k3 d10 k3, PS) was -14%.
On the same count and under the same terms, the value for AAAGAGTAACTACCAG (sugars k3 d10 k3, PS) was 22%.
In the case of GAACCACAACAATTTA (sugars k3 d10 k3, PS), the target mRNA inhibition with MALAT1 is 19%.
On the same count and under the same terms, as for TTTACCAACCACTCGC (sugars k3 d10 k3, PS), the figure is 18%.
